Like-named read-outs stand apart in the source and are kept apart here.
Experiments:
[1] = test system: IL-1β secreted by synoviocyte; test: Content of IL-1β in culture supernatant of synoviocyte of RA model rats given test compound; format: in vivo; conditions: rat RA model, dose 30 mg/kg.2d; normal control 0.16 ± 0.034, NaCl 0.49 ± 0.136
Method in brief: (§1)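 Test article is given to RA rats at 30 mg/kg.2d, and synoviocytes are isolated and cultured. Secreted TNF-α and PGE2 in the culture medium are measured by a shared protocol, while IL-1β release is measured by a different protocol. Comparison groups are saline (NaCl) and normal control rats.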

cancer cells = test: Survival rate of cancer cells after test compound is added (flow cytometry, Annexin V-FITC/PI, clinical specimen); format: cell-based, patient; conditions: Homo sapiens, 18 h, read-out: Survival rate (%) All cells (Stem cells and ordinary cells)
Method in brief: (§2)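 Steps: density-gradient isolation of mononuclear cells from fresh or cryopreserved clinical samples; 18-hour compound exposure at 1×10^6 cells/mL; staining for stem-cell surface markers, then Annexin V-FITC and PI; flow cytometric apoptosis analysis.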

[2] = test system: TNF-α secreted by synoviocyte; test: Content of TNF-α in culture supernatant of synoviocyte of RA model rats given test compound; format: in vivo; conditions: rat RA model, dose 30 mg/kg.2d; normal control 0.38 ± 0.027, NaCl 0.74 ± 0.098
Method in brief: as §1

cancer stem cells = test: Survival rate of cancer stem cells after test compound is added (flow cytometry, Annexin V-FITC/PI, clinical specimen); format: cell-based, patient; conditions: Homo sapiens, 18 h
Method in brief: as §2

normal cells = test: Survival rate of normal cells after test compound is added (flow cytometry, Annexin V-FITC/PI); format: cell-based; conditions: 18 h
Method in brief: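 Patient specimens (e.g. AML, CD34+/CD38+ stem-cell marker) separated on Ficoll; mononuclear cells at 1×10^6/mL in serum-free IMDM treated 18 h with compound. Cells stained for stem-cell markers, then Annexin V-FITC/PI, and apoptosis measured by flow cytometry within one hour.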

[3] = Head and neck squamous cell carcinomas
[4] = read-out: Survival rate (%) All cells (Stem cells and ordinary cells)
[5] = read-out: Survival rate (%) Stem cells

## CN(C)C[C@@H]1C(=O)O[C@H]2[C@H]1CCC1(CC1)[C@@H]1CCC3(CC3)[C@H]21 [Compound 27]
[1]
  Content of IL-1β in culture supernatant of synoviocyte (x ± s): 0.41 ± 0.047 ng/mL
Cancer cells; AML
  viability at 10 µM: 90%
  viability at 20 µM: 86%
Cancer cells; Brain glioma
  viability at 10 µM: 91%
  viability at 20 µM: 88%
Cancer cells; Brain tumor
  viability at 10 µM: 94%
  viability at 20 µM: 87%
Cancer cells; Breast cancer
  viability at 10 µM: 88%
  viability at 20 µM: 85%
Cancer cells; CLL
  viability at 10 µM: 93%
  viability at 20 µM: 88%
Cancer cells; CML
  viability at 10 µM: 94%
  viability at 20 µM: 87%
Cancer cells; Children hepatoblastoma
  viability at 10 µM: 88%
  viability at 20 µM: 87%
Cancer cells; Colon adenocarcinoma
  viability at 10 µM: 89%
  viability at 20 µM: 87%
Cancer cells; Colorectal cancer
  viability at 10 µM: 93%
  viability at 20 µM: 86%
Cancer cells; Gastric cancer
  viability at 10 µM: 87%
  viability at 20 µM: 83%
Cancer cells; Gastrointestinal tumor
  viability at 10 µM: 90%
  viability at 20 µM: 86%
Cancer cells; Glioma
  viability at 10 µM: 88%
  viability at 20 µM: 82%
Cancer cells; [3]
  viability at 10 µM: 87%
  viability at 20 µM: 83%
Cancer cells; Laryngeal cancer
  viability at 10 µM: 92%
  viability at 20 µM: 89%
Cancer cells; Liver cancer
  viability at 10 µM: 90%
  viability at 20 µM: 86%
Cancer cells; Lung adenocarcinoma
  viability at 10 µM: 89%
  viability at 20 µM: 86%
Cancer cells; Lung cancer
  viability at 10 µM: 88%
  viability at 20 µM: 81%
Cancer cells; Malignant melanoma
  viability at 10 µM: 91%
  viability at 20 µM: 85%
Cancer cells; Nasopharynx cancer
  viability at 10 µM: 91%
  viability at 20 µM: 85%
Cancer cells; Ovarian cancer
  viability at 10 µM: 88%
  viability at 20 µM: 84%
Cancer cells; Pancreatic cancer
  viability at 10 µM: 93%
  viability at 20 µM: 92%
Cancer cells; Prostate cancer
  viability at 10 µM: 91%
  viability at 20 µM: 88%
Cancer cells; Retinoblastoma
  viability at 10 µM: 94%
  viability at 20 µM: 86%
Cancer cells; Skin cancer
  viability at 10 µM: 94%
  viability at 20 µM: 81%
[2]
  Content of TNF-α in culture supernatant of synoviocyte (x ± s): 0.54 ± 0.066 ng/mL
Cancer stem cells; AML
  viability at 10 µM: 87%
  viability at 20 µM: 77%
Cancer stem cells; Brain glioma
  viability at 10 µM: 84%
  viability at 20 µM: 78%
Cancer stem cells; Brain tumor
  viability at 10 µM: 87%
  viability at 20 µM: 76%
Cancer stem cells; Breast cancer
  viability at 10 µM: 84%
  viability at 20 µM: 76%
Cancer stem cells; CLL
  viability at 10 µM: 87%
  viability at 20 µM: 82%
Cancer stem cells; CML
  viability at 10 µM: 87%
  viability at 20 µM: 76%
Cancer stem cells; Children hepatoblastoma
  viability at 10 µM: 82%
  viability at 20 µM: 79%
Cancer stem cells; Colon adenocarcinoma
  viability at 10 µM: 82%
  viability at 20 µM: 78%
Cancer stem cells; Colorectal cancer
  viability at 10 µM: 85%
  viability at 20 µM: 79%
Cancer stem cells; Gastric cancer
  viability at 10 µM: 81%
  viability at 20 µM: 75%
Cancer stem cells; Gastrointestinal tumor
  viability at 10 µM: 86%
  viability at 20 µM: 77%
Cancer stem cells; Glioma
  viability at 10 µM: 80%
  viability at 20 µM: 75%
Cancer stem cells; [3]
  viability at 10 µM: 81%
  viability at 20 µM: 75%
Cancer stem cells; Laryngeal cancer
  viability at 10 µM: 85%
  viability at 20 µM: 77%
Cancer stem cells; Liver cancer
  viability at 10 µM: 86%
  viability at 20 µM: 77%
Cancer stem cells; Lung adenocarcinoma
  viability at 10 µM: 82%
  viability at 20 µM: 76%
Cancer stem cells; Lung cancer
  viability at 10 µM: 79%
  viability at 20 µM: 72%
Cancer stem cells; Malignant melanoma
  viability at 10 µM: 82%
  viability at 20 µM: 74%
Cancer stem cells; Nasopharynx cancer
  viability at 10 µM: 82%
  viability at 20 µM: 74%
Cancer stem cells; Ovarian cancer
  viability at 10 µM: 83%
  viability at 20 µM: 77%
Cancer stem cells; Pancreatic cancer
  viability at 10 µM: 86%
  viability at 20 µM: 78%
Cancer stem cells; Prostate cancer
  viability at 10 µM: 84%
  viability at 20 µM: 78%
Cancer stem cells; Retinoblastoma
  viability at 10 µM: 85%
  viability at 20 µM: 80%
Cancer stem cells; Skin cancer
  viability at 10 µM: 85%
  viability at 20 µM: 74%
Normal cells; [4]
  viability at 10 µM: 91%
  viability at 20 µM: 89%
Normal cells; [5]
  viability at 10 µM: 88%
  viability at 20 µM: 81%

From patent US10463644B2, “Uses of sesquiterpene lactone compounds and their derivatives in drugs preparation” (ACCENDATECH, priority 2013, dated 2019)
